# Structures can show the parent of a compound that is named as a salt.
# Experiments:
# [1] = Temperature/relative humidity-related stability (validated HPLC assay, XRPD); format: physicochemical
# Excerpt: 3 Sample batches of the compound were stored under the conditions of the study as stated in the table below. The assay was done by a validated HPLC method.
# [2] = in vivo; cited from earlier work
# [3] = tested on: broad spectrum of microorganisms including antibiotic-resistant strains of Staphylococcus aureus, more particularly glycopeptide-resistant staphylococci; conditions: incl. antibiotic-resistant S. aureus; cited from earlier work
# [4] = Conversion of monohydrate to tetrahydrate under ambient conditions, by XRPD; format: physicochemical; conditions: ambient temperature (35° C.) and relative humidity (60%)
# Method: X-ray diffraction analyses (40 kv x 40 mA Rigaku D/max 2200) were performed under the conditions listed below: • Scan speed 5°/min or 20°/min • Sampling time 7 min or 2 min • Scan mode: continuous • 2θ/θ reflection • Cu target (Ni filter)
structure (smiles),measurement,setting,value
"C[C@H]1CCc2c(N3CCC(O)CC3)c(F)cc3c(=O)c(C(=O)O)cn1c23 [S-(−)-9-fluoro-6,7-dihydro-8-(4-hydroxypiperidin-1-yl)-5-methyl-1-oxo-1H,5H-benzo[i,j]quinolizine-2-carboxylic acid L-arginine salt tetrahydrate]",HPLC assay on storage,"[1]; 25° C./60% relative humidity, 3 months",99.22%
same,HPLC assay on storage,"[1]; 25° C./60% relative humidity, Initial",99.31%
same,HPLC assay on storage,"[1]; 40° C./75% relative humidity, 1 month",99.30%
same,HPLC assay on storage,"[1]; 40° C./75% relative humidity, 2 months",99.25%
same,HPLC assay on storage,"[1]; 40° C./75% relative humidity, 3 months",99.27%
same,HPLC assay on storage,"[1]; 40° C./75% relative humidity, Initial",99.31%
same,Crystallinity on storage as seen by XRPD spectra,[1]; storage conditions of the stability study,underwent no changes
"C[C@H]1CCc2c(N3CCC(O)CC3)c(F)cc3c(=O)c(C(=O)O)cn1c23.N=C(N)NCCC[C@H](N)C(=O)O [S-(−)-9-fluoro-6,7-dihydro-8-(4-hydroxypiperidin-1-yl)-5-methyl-1-oxo-1H,5H-benzo[i,j]quinolizine-2-carboxylic acid L-arginine salt]",Overall tolerability,[2],excellent overall tolerability
same,Efficacy against microorganisms in mammals,[3],effective against a broad spectrum of microorganisms
"C[C@H]1CCc2c(N3CCC(O)CC3)c(F)cc3c(=O)c(C(=O)O)cn1c23.N=C(N)NCCC[C@H](N)C(=O)O [monohydrate, S-(−)-9-fluoro-6,7-dihydro-8-(4-hydroxypiperidin-1-yl)-5-methyl-1-oxo-1H,5H-benzo[i,j]quinolizine-2-carboxylic acid L-arginine salt]",Physical stability / moisture absorption,[4],highly unstable and rapidly absorbs moisture
same,Time until XRPD spectra change towards tetrahydrate,[4],≤ 20 min
